Read-outs that look alike come from different tables or passages of the source.

The target of one assay is Y641N EZH2 (Homo sapiens, UniProt Q15910, Y641N). Description: Y641N EZH2 assay: as EZH2 assay, with reconstituted H3K27Me2 oligonucleosomes as substrate. It is filed as biochemical.
A further assay has as its target EZH2 (rPRC2) (Homo sapiens, UniProt Q15910). Description: EZH2 assay: rPRC2, biotinylated oligonucleosomes, 3H SAM methyl transfer (FlashPlate scintillation). It counts as biochemical. The conditions noted are these: biotinylated oligonucleosome substrate. On the procedure:
Assays were carried out by mixing rPRC2 together with biotinylated oligonucleosome substrates in the presence of the radio-labeled enzyme co-factor, S-adenosyl-1-methionine (^3H SAM) (Perkin Elmer) and monitoring the enzymatically mediated transfer of tritiated methyl groups from ^3H SAM to histone lysine residues. The amount of resulting tritiated methyl histone product was measured by first capturing the biotinylated oligonucleosomes in streptavidin (SAV) coated FlashPlates (Perkin Elmer), followed by a wash step to remove un-reacted ^3H SAM, and then counting on a TopCount NXT 384 well plate scintillation counter (Perkin Elmer). The final assay conditions for EZH2 were as follows: 50 mM Tris Buffer pH 8.5, 1 mM DTT, 69 μM Brij-35 detergent, 5.0 mM MgCl2, 0.1 mg/mL BSA, 0.2 μM ^3H SAM, 0.2 μM biotinylated oligonucleosomes, 3.6 μM H3K27 mc3 peptide and 2 nM EZH2.
A 12.5 μL volume of the HMT enzyme, H3K27me3 peptide and oligonucleosome substrate in assay buffer was added to each well of the assay plate using a Multidrop Combi (ThermoFisher). Compounds were pre-incubated with the enzyme for 20 min, followed by initiation of the methyltransferase reaction by addition of 12.5 μL of ^3H SAM in assay buffer (final volume=25 μL). The final concentrations of compounds ranged from a top default concentration of 80 μM down to 0.16 μM in ten 2-fold dilution steps. Reactions were carried out for 60 minutes and quenched with 20 μL per well of 1.96 mM SAH, 50 mM Tris pH 8.5, 200 mM EDTA. Stopped reactions were transferred to SAV coated Flashplates (Perkin Elmer), incubated for 120 min, washed with a plate washer, and then read on the TopCount NXT (1.0 min/well) to measure the amount of methyl histone product formed during the reaction.

The mark [1] stands for this setting: Y641N EZH2 IC50, Y641N mutant EZH2, H3K27Me2 oligonucleosome substrate.
The mark [2] stands for this setting: EZH2 IC50, wild-type EZH2 (rPRC2).
Setting [3] is: Y641N mutant EZH2, H3K27Me2 oligonucleosome substrate, read-out: Y641N EZH2 IC50.
The mark [4] stands for this setting: wild-type EZH2 (rPRC2), read-out: EZH2 IC50.

EZH2 (rPRC2), sequence (Q15910 whole entry): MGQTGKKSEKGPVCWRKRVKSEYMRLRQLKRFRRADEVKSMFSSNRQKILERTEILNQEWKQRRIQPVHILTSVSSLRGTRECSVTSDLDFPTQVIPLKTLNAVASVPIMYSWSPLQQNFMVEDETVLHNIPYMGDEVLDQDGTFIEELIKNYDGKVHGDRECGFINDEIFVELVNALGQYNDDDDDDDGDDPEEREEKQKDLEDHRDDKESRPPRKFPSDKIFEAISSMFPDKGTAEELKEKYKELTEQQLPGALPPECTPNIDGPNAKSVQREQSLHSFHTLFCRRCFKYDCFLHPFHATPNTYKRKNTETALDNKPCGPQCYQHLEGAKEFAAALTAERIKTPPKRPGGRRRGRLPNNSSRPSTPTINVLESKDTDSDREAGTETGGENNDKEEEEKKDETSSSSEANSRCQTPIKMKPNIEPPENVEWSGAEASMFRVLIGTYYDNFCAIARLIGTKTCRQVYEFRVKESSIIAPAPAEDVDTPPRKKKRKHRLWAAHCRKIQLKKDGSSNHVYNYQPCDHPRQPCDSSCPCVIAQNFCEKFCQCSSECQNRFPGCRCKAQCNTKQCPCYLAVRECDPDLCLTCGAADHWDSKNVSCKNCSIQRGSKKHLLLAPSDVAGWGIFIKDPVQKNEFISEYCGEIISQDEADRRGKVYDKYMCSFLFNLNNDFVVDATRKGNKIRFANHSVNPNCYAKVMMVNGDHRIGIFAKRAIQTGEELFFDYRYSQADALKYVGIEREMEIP
EZH2 (rPRC2), sequence (O75530 whole entry partner): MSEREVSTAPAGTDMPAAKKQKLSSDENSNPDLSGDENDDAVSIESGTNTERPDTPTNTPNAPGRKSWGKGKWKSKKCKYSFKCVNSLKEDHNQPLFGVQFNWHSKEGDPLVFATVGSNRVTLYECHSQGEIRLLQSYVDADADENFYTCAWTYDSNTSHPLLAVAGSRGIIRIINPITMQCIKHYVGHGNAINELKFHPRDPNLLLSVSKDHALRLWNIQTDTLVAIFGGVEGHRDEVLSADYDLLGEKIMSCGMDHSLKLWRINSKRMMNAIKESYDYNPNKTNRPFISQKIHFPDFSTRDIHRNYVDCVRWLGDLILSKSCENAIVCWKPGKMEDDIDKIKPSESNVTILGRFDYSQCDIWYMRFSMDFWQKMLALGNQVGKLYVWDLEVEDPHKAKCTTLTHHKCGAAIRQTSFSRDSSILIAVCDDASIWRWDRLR
EZH2 (rPRC2), sequence (Q15022 whole entry partner): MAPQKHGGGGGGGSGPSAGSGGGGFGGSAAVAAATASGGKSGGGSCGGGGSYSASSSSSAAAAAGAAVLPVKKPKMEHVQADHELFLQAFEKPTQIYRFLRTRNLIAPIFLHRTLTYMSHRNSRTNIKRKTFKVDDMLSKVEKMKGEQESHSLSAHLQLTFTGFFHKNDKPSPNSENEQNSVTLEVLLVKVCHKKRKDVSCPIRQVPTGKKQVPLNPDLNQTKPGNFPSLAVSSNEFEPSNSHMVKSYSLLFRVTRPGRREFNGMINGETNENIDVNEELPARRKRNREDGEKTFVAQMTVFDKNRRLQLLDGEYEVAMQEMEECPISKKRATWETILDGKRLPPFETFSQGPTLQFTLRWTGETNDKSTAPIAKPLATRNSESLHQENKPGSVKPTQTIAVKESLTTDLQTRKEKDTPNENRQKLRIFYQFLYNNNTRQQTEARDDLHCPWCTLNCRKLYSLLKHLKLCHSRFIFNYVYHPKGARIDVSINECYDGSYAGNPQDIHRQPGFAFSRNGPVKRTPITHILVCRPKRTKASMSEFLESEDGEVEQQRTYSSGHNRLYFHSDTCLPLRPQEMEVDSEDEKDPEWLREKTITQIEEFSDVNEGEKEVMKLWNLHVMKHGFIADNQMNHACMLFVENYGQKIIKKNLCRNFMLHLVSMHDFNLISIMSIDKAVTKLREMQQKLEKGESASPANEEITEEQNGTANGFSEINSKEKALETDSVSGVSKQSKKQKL
Y641N EZH2, sequence (Q15910 whole entry Y641N): as the sequence (Q15910 whole entry) above, with Y641N counted along it
Y641N EZH2, sequence (O75530 whole entry partner): as the sequence (O75530 whole entry partner) above
Y641N EZH2, sequence (Q15022 whole entry partner): as the sequence (Q15022 whole entry partner) above

Consider `Cc1cc(C)c(CNC(=O)c2c(C)n(C(C)c3ccccc3)c3cccnc23)c(O)n1` (racemic) [Compound 126, N-((2-hydroxy-4,6-dimethylpyridin-3-yl)methyl)-2-methyl-1-(1-phenylethyl)-1H-pyrrolo[3,2-b]pyridine-3-carboxamide], for which the figures for the half-inhibitory concentration (IC50) against Y641N EZH2 (setting [1]) and at EZH2 (rPRC2) (setting [2]) were 1 to 10 µM and 0.1 to 1 µM, respectively.

As to `Cc1cc(C)c(CNC(=O)c2c(C3CC3)n(C(C)c3ccccc3)c3ccccc23)c(O)n1` (racemic) [Compound 131, (±)-2-cyclopropyl-N-((2-hydroxy-4,6-dimethylpyridin-3-yl)methyl)-1-(1-phenylethyl)-1H-indole-3-carboxamide], the “Y641N EZH2 IC50” value on Y641N EZH2 (Y641N mutant EZH2, H3K27Me2 oligonucleosome substrate) is given as “*(1.0 μM)”. For the same compound, the “EZH2 IC50” value on EZH2 (rPRC2) (wild-type EZH2 (rPRC2)) was “*(1.0 μM)”.

Regarding `Cc1cc(C)c(CNC(=O)c2c(C)n(C(C)c3ccccc3)c3c(=O)n(C)ccc23)c(=O)[nH]1` (racemic) [Compound 139, N-((4,6-dimethyl-2-oxo-1,2-dihydropyridin-3-yl)methyl)-2,6-dimethyl-7-oxo-1-(1-phenylethyl)-6,7-dihydro-1H-pyrrolo[2,3-c]pyridine-3-carboxamide], the concentration for half-maximal inhibition (IC50) (commonly the concentration that gives 50% inhibition) at Y641N EZH2 (setting [3]) was 1 to 10 µM; at EZH2 (rPRC2) (setting [4]), 0.1 to 1 µM.

On to `Cc1cc(C)c(CNC(=O)c2c(C)n(C(C)c3ccccc3C)c3ccccc23)c(=O)[nH]1` (racemic) [Compound 174, (±)-N-((4,6-dimethyl-2-oxo-1,2-dihydropyridin-3-yl)methyl)-2-methyl-1-(1-(o-tolyl)ethyl)-1H-indole-3-carboxamide], for which the figures for the concentration for half-maximal inhibition (IC50) against Y641N EZH2 (setting [1]) and against EZH2 (rPRC2) (setting [2]) were 1 to 10 µM and 0.1 to 1 µM, respectively.

In the case of `Cc1cc(C)c(CNC(=O)c2c(C)n(C(C)c3ccccc3C#N)c3ccccc23)c(=O)[nH]1` (racemic) [Compound 178, (±)-1-(1-(2-cyanophenyl)ethyl)-N-((4,6-dimethyl-2-oxo-1,2-dihydropyridin-3-yl)methyl)-2-methyl-1H-indole-3-carboxamide], the IC50 against Y641N EZH2 (setting [1]) was 1 to 10 µM; at EZH2 (rPRC2) (setting [2]) it was 0.1 to 1 µM.

As to `Cc1cc(C)c(CNC(=O)c2c(C)n(C(C)c3ccc(S(C)(=O)=O)cc3)c3ccccc23)c(=O)[nH]1` (racemic) [Compound 179, (±)-N-((4,6-dimethyl-2-oxo-1,2-dihydropyridin-3-yl)methyl)-2-methyl-1-(1-(4-(methylsulfonyl)phenyl)ethyl)-1H-indole-3-carboxamide], the IC50 on Y641N EZH2 (setting [1]) is 0.1 to 1 µM; against EZH2 (rPRC2) (setting [2]), less than 0.1 µM.

With `CCC(C)n1c(C)c(C(=O)NCc2c(C)cc(C)[nH]c2=O)c2cccnc21` (racemic) [Compound 185, (±)-1-(sec-butyl)-N-((4,6-dimethyl-2-oxo-1,2-dihydropyridin-3-yl)methyl)-2-methyl-1H-pyrrolo[2,3-b]pyridine-3-carboxamide], the IC50 lay in the range of 1 to 10 µM at Y641N EZH2 (setting [1]) and 0.1 to 1 µM against EZH2 (rPRC2) (setting [2]).

As for `COc1ccccc1C(C)n1c(C)c(C(=O)NCc2c(C)cc(C)[nH]c2=O)c2ccccc21` (racemic) [Compound 186, (±)-N-((4,6-dimethyl-2-oxo-1,2-dihydropyridin-3-yl)methyl)-1-(1-(2-methoxyphenyl)ethyl)-2-methyl-1H-indole-3-carboxamide], the IC50 at Y641N EZH2 (setting [1]) and against EZH2 (rPRC2) (setting [2]) was 0.1 to 1 µM in each case.

`Cc1cc(C)c(CNC(=O)c2c(C)n(C(C)CCO)c3ncccc23)c(=O)[nH]1` (racemic) [Compound 193, (±)-N-((4,6-dimethyl-2-oxo-1,2-dihydropyridin-3-yl)methyl)-1-(4-hydroxybutan-2-yl)-2-methyl-1H-pyrrolo[2,3-b]pyridine-3-carboxamide]: the IC50 at Y641N EZH2 (setting [1]) lay within 1 to 10 µM; against EZH2 (rPRC2) (setting [2]) it was 0.1 to 1 µM.

For `Cc1cc(C)c(COC(=O)c2c(C)n(C3CCOC3)c3ncccc23)c(=O)[nH]1` (racemic) [Compound 202, (±)-(4,6-dimethyl-2-oxo-1,2-dihydropyridin-3-yl)methyl 2-methyl-1-(tetrahydrofuran-3-yl)-1H-pyrrolo[2,3-b]pyridine-3-carboxylate], the values for the IC50 on Y641N EZH2 (setting [1]) and against EZH2 (rPRC2) (setting [2]) were 1 to 10 µM and 0.1 to 1 µM, respectively.

In the case of `Cc1cc(C)c(CNC(=O)c2c(C)n(C(C)c3cccc(-c4ccncn4)c3)c3ccccc23)c(=O)[nH]1` (racemic) [Compound 205, (±)-N-((4,6-dimethyl-2-oxo-1,2-dihydropyridin-3-yl)methyl)-2-methyl-1-(1-(3-(pyrimidin-4-yl)phenyl)ethyl)-1H-indole-3-carboxamide], the half-inhibitory concentration (IC50) against Y641N EZH2 (setting [1]) and against EZH2 (rPRC2) (setting [2]) was 0.1 to 1 µM in each case.

Regarding `COc1cccc(C(C)n2c(C)c(C(=O)NCc3c(C)cc(C)[nH]c3=O)c3cccnc32)c1` (racemic) [Compound 206, (±)-N-((4,6-dimethyl-2-oxo-1,2-dihydropyridin-3-yl)methyl)-1-(1-(3-methoxyphenyl)ethyl)-2-methyl-1H-pyrrolo[2,3-b]pyridine-3-carboxamide], the half-maximal inhibitory concentration (IC50) was in the range of 1 to 10 µM at Y641N EZH2 (setting [1]) and 0.1 to 1 µM at EZH2 (rPRC2) (setting [2]).

Regarding `COc1cc(C)[nH]c(=O)c1CNC(=O)c1c(C)n(C(C)C#N)c2ncccc12` (racemic) [Compound 214, (±)-1-(1-cyanoethyl)-N-((4-methoxy-6-methyl-2-oxo-1,2-dihydropyridin-3-yl)methyl)-2-methyl-1H-pyrrolo[2,3-b]pyridine-3-carboxamide], the concentration for half-maximal inhibition (IC50) was 1 to 10 µM at Y641N EZH2 (setting [1]) and 0.1 to 1 µM against EZH2 (rPRC2) (setting [2]).

As for `CCCc1cc(C)[nH]c(=O)c1CNC(=O)c1c(C)n(C(C)COC)c2ncccc12` (racemic) [Compound 216, (±)-1-(1-methoxypropan-2-yl)-2-methyl-N-((6-methyl-2-oxo-4-propyl-1,2-dihydropyridin-3-yl)methyl)-1H-pyrrolo[2,3-b]pyridine-3-carboxamide], the results for the half-inhibitory concentration (IC50) against Y641N EZH2 (setting [1]) and against EZH2 (rPRC2) (setting [2]) were 1 to 10 µM and 0.1 to 1 µM, respectively.

For `CCC(c1ccccc1)n1c(C)c(C(=O)NCc2c(C)cc(C)[nH]c2=O)c2cccnc21` (racemic) [Compound 220, (±)-N-((4,6-dimethyl-2-oxo-1,2-dihydropyridin-3-yl)methyl)-2-methyl-1-(1-phenylpropyl)-1H-pyrrolo[2,3-b]pyridine-3-carboxamide], the concentration for half-maximal inhibition (IC50) was 0.1 to 1 µM at Y641N EZH2 (setting [1]) and less than 0.1 µM against EZH2 (rPRC2) (setting [2]).

As for `Cc1cc(C)c(CNC(=O)c2c(C)n(C(C)Cn3cccn3)c3ncccc23)c(=O)[nH]1` (racemic) [Compound 221, (±)-1-(1-(1H-pyrazol-1-yl)propan-2-yl)-N-((4,6-dimethyl-2-oxo-1,2-dihydropyridin-3-yl)methyl)-2-methyl-1H-pyrrolo[2,3-b]pyridine-3-carboxamide], the IC50 fell in the range of 1 to 10 µM on Y641N EZH2 (setting [3]) and 0.1 to 1 µM at EZH2 (rPRC2) (setting [4]).

For `Cc1cc(C)c(CNC(=O)c2cnn(C(C)c3ccccc3)c2C)c(O)n1` (single isomer, unassigned) [Compound 108, (R or S)—N-((2-hydroxy-4,6-dimethylpyridin-3-yl)methyl)-5-methyl-1-(1-phenylethyl)-1H-pyrazole-4-carboxamide], on EZH2 (rPRC2) (setting [4]), the half-maximal inhibitory concentration (IC50) was more than 10 µM.

On to `COc1cc(C)[nH]c(=O)c1CNC(=O)c1c(C)n(C(C)c2ccccc2)c2ccccc12` (single isomer, unassigned) [Compound 115, (S or R)N-((4-methoxy-6-methyl-2-oxo-1,2-dihydropyridin-3-yl)methyl)-2-methyl-1-(1-phenylethyl)-1H-indole-3-carboxamide], for which the IC50 at EZH2 (rPRC2) (read-out: EZH2 IC50, wild-type EZH2 (rPRC2)) was less than 0.1 µM.

As for `Cc1cc(C)c(CNC(=O)c2c(C)n(C(C)c3ccccc3)c3ncccc23)c(=O)[nH]1` (single isomer, unassigned) [Compound 117, N-((4,6-dimethyl-2-oxo-1,2-dihydropyridin-3-yl)methyl)-2-methyl-1-(1-phenylethyl)-1H-pyrrolo[2,3-b]pyridine-3-carboxamide], the IC50 on Y641N EZH2 (read-out: Y641N EZH2 IC50, Y641N mutant EZH2, H3K27Me2 oligonucleosome substrate) is 0.1 to 1 µM.

On Y641N EZH2 (setting [1]), `CCC(C)n1c(C)c(C(=O)NCc2c(C)cc(C)[nH]c2=O)c2cccnc21` (single isomer, unassigned) [Compound 196, (R or S)-1-(sec-butyl)-N-((4,6-dimethyl-2-oxo-1,2-dihydropyridin-3-yl)methyl)-2-methyl-1H-pyrrolo[2,3-b]pyridine-3-carboxamide] showed a concentration for half-maximal inhibition (IC50) of 0.1 to 1 µM.

As to `Cc1cc(C)c(CNC(=O)c2c(-c3ccccc3)n(C(C)c3ccccc3)c3ccccc23)c(O)n1` (single isomer, unassigned) [Compound 446, (R or S)-N-((2-hydroxy-4,6-dimethylpyridin-3-yl)methyl)-2-phenyl-1-(1-phenylethyl)-1H-indole-3-carboxamide], on EZH2 (rPRC2) (wild-type EZH2 (rPRC2)), the “EZH2 IC50” value is “*(10 uM)”.

Source of the values: US9371331B2, “Modulators of methyl modifying enzymes, compositions and uses thereof” (Constellation Pharmaceuticals, Inc., priority 2012, dated 2016).
